Measurements as given in patent US20170051149A1, “AZOARYLS AS REVERSIBLY MODULATABLE TUBULIN INHIBITORS” (ECOLE NORMALE SUPERIEURE DE LYON, priority 2014, published 2017).
One block for each compound: values may come before it.

Key:
[1] = UV-Vis absorption spectra of trans and cis isomers (λstrong, εE, λiso); format: physicochemical
Method: A(λmeas, λirrad) is used to indicate the measured UV-Vis absorption spectrum in the range 340 nm<λmeas<650 nm, as a function of the irradiating wavelength λirrad once PSS(λirrad) has been established. UV-Vis measurement of A(λmeas, λirrad) was performed. It was considered that the PSS had been established when the absorbance profile ceased to alter under continued irradiation. An isosbestic point (wavelength λiso) was found for each compound by examining where the absorption A(λmeas) was invariant with respect to changing λirrad. A(λmeas, dark) was also acquired with samples that had been kept in the dark for at least several hours, and it was assumed that no significant spectral contribution from the cis isomer was present in these spectra. […]
HPLC (high-performance liquid chromatography) was then used as described in Part A to measure ε*E(λ) and ε*Z(λ) (the separated absorption profiles of trans and cis isomers respectively, in arbitrary units which are not intercomparable in an absolute sense). It was approximated that these spectra would be identical in shape if measured under the UV-Vis conditions, so once ε*E(λ) and ε*Z(λ) were scaled appropriately relative to each other, these scaled spectra could be used to deconvolute A(λmeas, λirrad). This approximation was considered useful especially in the regions of greatest spectral interest, ie. regions of relatively strong absorption (since only rather well-absorbed wavelengths will allow significant photoisomerisation under finite photon flux). To place the arbitrary-unit absorption spectra on an absolute scale, the maximal absorption wavelength λstrong of the trans-isomer was first selected by examining A(λmeas, dark): typically, λstrong≈380 nm. with Expressing A(λstrong, dark) in units M^−1cm^−1, ε*E(λstrong) was then scaled so that εE(λstrong)=A(λstrong, dark), giving:
εE(λ)=ε*E(λ)×[A(λstrong,dark)/ε*E(λstrong)]
and the isosbestic point was used to scale the cis-isomer spectrum as per:
εZ(λ)=ε*Z(λ)×[εE(λiso)/ε*Z(λiso)]
However, using A(λstrong, dark) was preferred, since A(λiso) was typically so much smaller that the standard deviation in the scaled absorptivities which it generated was far greater.
Absorption spectra in cuvette (“UV-Vis”) were acquired on a Varian CaryScan 50 (1 cm, 100 μL or 1 mL volume) with Peltier cell temperature control unit maintained at 37° C., in PBS at pH˜7.4 containing a low percentage of cosolvent if needed (typically 2% MeCN or 5% DMSO). A ThorLabs Polychrome V monochromator with a fibre optic cable output directed into the cuvette was used to perform photoisomerisation studies by UV-Vis spectrophotometry although single LEDs of approximately 10-20 mW output, 15-20° cone angle, and 10-15 nm bandwidth FWHM, obtained commercially from Roithner Lasertechnik GmbH, were equally successful in providing repeatable monochromatic photoisomerisation. Separated spectra of trans and […] forms were acquired from the inline Diode Array Detector on the AGILENT 1260 SL coupled LC-MS system after HPLC separation. Fluorescence spectrophotometry (excitation and emission spectra) were acquired on a Varian CaryEclipse fluorescence spectrophotometer.
By the above procedure, the trans- and cis-isomers of each species were separated by HPLC as described in Part A, and ε*E(λ) and ε*Z(λ) were measured on the inline ultraviolet/visible Diode Array Detector; these were then scaled as outlined above. The parameters λstrong, εE(λstrong) and λiso are tabulated for selected compounds below (Table 1).

[2] = photoisomerisation: photostationary state, calculated φ(λ) and E(λ), reversible cycling; format: physicochemical
Method: In a simple analysis of the PSS(λ) and E(λ), it was approximated that ΦEZ and ΦZE (the quantum efficiencies of the photoisomerisations trans->cis and cis->trans, respectively) are equal and independent of wavelength, and also that the kinetics of spontaneous reversion could be ignored (eg. high-intensity light source). A function φ(λ) was then calculated as per: […]
If ΦEZ and ΦZE are equal and independent of wavelength, φ(λ) gives the true PSS(λ). The wavelength independence of ΦEZ and ΦZE may be an acceptable approximation in regions of relatively strong absorption within the visible spectrum. Their equality may also be an acceptable assumption: since if ΦEZ and ΦZE are unequal but only depend weakly on wavelength in regions of relatively strong absorption, then φ(λ) is a transform of the true PSS(λ); this transform preserves the features of PSS(λ) which were most desired for evaluation in this study as long as ΦEZ and ΦZE are not too different (eg less than a factor of ten difference). Indeed, the calculated φ(λ) were later confirmed by in cellulo experiments to give reliable indications of favourable wavelengths for bulk trans->cis and bulk cis->trans photoisomerisation, which is the benchmark for a suitable analysis of the PSS(λ). The advantages of calculating φ(λ) rather than exhaustively measuring the PSS(λ) experimentally are that (a) the throughput is much faster, (b) the true PSS(λ) may be difficult to achieve at weakly-absorbing wavelengths or with fast-relaxing compounds, (c) the true PSS(λ) may be difficult to measure accurately at wavelengths where one isomer strongly dominates the sample even if both are relatively strongly absorbing, and (d) the variation of PSS(λ) with changes in the local biological microenvironment (polarity, pH etc) may anyway be larger than the error incurred by the assumption φ(λ)═PSS(λ).
Also following the assumption that ΦEZ and ΦZE are equal and independent of wavelength, a photoisomerisation efficiency E(λ) was calculated as per:
E(λ)=[εE(λ)+εZ(λ)]/[εE(390)+εZ(390)]
Larger values of E(λ) therefore denote higher efficiency photoisomerisation (less photon flux is required to approach the PSS(λ)). E(λ) was parametrised to the absorption coefficients at 390 nm, since typically that wavelength gave satisfactorily strong absorption and efficient photoisomerisation. It should be noted that E(λ) are not intercomparable between different compounds. This reflects the realistic scenario that the ΦEZ (or the ΦZE) of two arbitrarily chosen compounds may differ by a significant amount, even if the approximation that ΦEZ and ΦZE are equal and independent of wavelength applies independently to each compound.
A(λstrong) was measured over time in the UV-Vis cuvette in non-degassed PBS left open to the atmosphere, […], at 37° C., while the monochromator was used to apply λirrad alternating between two values λ1 and λ2, chosen to induce net trans->cis and net cis->trans isomerisation respectively. Typical results are presented for compound I.1 (FIG. 3). The absorbance of I.1 (18 μM) was measured at λstrong=378 nm, while the irradiating wavelength was held alternately at λ1=388 nm (50 s; bulk trans->cis) then λ2=508 nm (180 s, bulk cis->trans). Higher absorbance corresponds to a greater amount of trans isomer: an absorbance of 0.27 here corresponds to an approximately 5:1 ratio of trans:cis isomer in the sample, and an absorbance of 0.12 here corresponds to an approximately 1:2 ratio of trans:cis isomer in the sample. […] Typically, compounds of the invention could be bulk-photoisomerised hundreds of times over a timescale of hours (50 representative cycles are shown in FIG. 3 for I.1), such that the majority species in a sample was photocontrollably alternated between the trans-isomer and the cis-isomer. […]

[3] = fluorophore moiety range above 510 nm, PBS pH = 7.4, 20% MeCN

εE(λstrong) ([1]; PBS pH = 6, 20% MeCN): 17100 M⁻¹ cm⁻¹
λiso ([1]; PBS pH = 6, 20% MeCN): 465 nm
λstrong ([1]; PBS pH = 6, 20% MeCN): 380 nm
εE(λstrong) ([1]; PBS pH = 7.4, 20% MeCN): 17700 M⁻¹ cm⁻¹
λiso ([1]; PBS pH = 7.4, 20% MeCN): 470 nm
λstrong ([1]; PBS pH = 7.4, 20% MeCN): 375 nm
E(388)/E(508) [2]: 0.04
E(λ) ([2]; 390 nm): 1.00
% cis after photoisomerisation from all-trans ([2]; 390 nm light): approx. 90%
E(λ) ([2]; 410 nm): 0.59
% cis after photoisomerisation from all-trans ([2]; 450 nm light): approx. 50%
E(λ) ([2]; 475 nm): 0.14
E(λ) ([2]; 490 nm): 0.08
E(λ) ([2]; 505 nm): 0.04
E(λ) ([2]; 525 nm): 0.02
φ(490) ([2]; calculated from εE and εZ): 0.30
φ(505) ([2]; calculated from εE and εZ): 0.23
% cis after subsequent irradiation ([2]; subsequent 505 nm light): approx. 20%
SMILES: COc1ccc(N=Nc2cc(OC)c(OC)c(OC)c2)cc1O [I.1, 2-methoxy-5-((3,4,5-trimethoxyphenyl)diazenyl)phenol]

SMILES: CCN(CC)c1ccc2c(-c3ccccc3C(=O)N3CCN(CCCOc4c(N=Nc5cc(OC)c(OC)c(OC)c5)ccc(OC)c4C)CC3)c3ccc(=[N+](CC)CC)cc-3oc2c1.CCN(CC)c1ccc2c(-c3ccccc3C(=O)N3CCN(CCCOc4c(N=Nc5cc(OC)c(OC)c(OC)c5)ccc(OC)c4C)CC3)c3ccc(=[N+](CC)CC)cc-3oc2c1.O=C[O-].O=C[O-] [I.25, N-(6-(diethylamino)-9-(2-(4-(3-(3-methoxy-2-methyl-6-((3,4,5-trimethoxyphenyl)diazenyl)phenoxy)propyl)piperazine-1-carbonyl)phenyl)-3H-xanthen-3-ylidene)-N-ethylethanaminium bis(formate) salt]
εE(λstrong) ([1]; PBS pH = 7.4, 20% MeCN): 15300 M⁻¹ cm⁻¹
λiso ([1]; PBS pH = 7.4, 20% MeCN): 460 nm
λstrong ([1]; PBS pH = 7.4, 20% MeCN): 375 nm
εE(λstrong) [1, 3]: (66600) M^−1cm^−1
λstrong [1, 3]: (565) nm
λiso ([1]; fluorophore moiety range, A(λ > 510) invariant upon photoswitching): (510 ff) nm
% trans ([2]; irradiation at 554 nm, 33 μM, PBS 20% MeCN, 37° C.): 100%
% cis before photorelaxation ([2]; state before 550 nm irradiation): > 70%
% trans after photorelaxation ([2]; very low intensity light of 550 nm): > 99%
